Common to all, as to assay: NCI tumour cell line growth inhibition, 48 h
Assay [1] concerns PC-3 prostate.
For assay [2], the system named is SK-OV-3 ovarian.
Assay [3] relates to UACC-62 melanoma.
In assay [4] the test system is UO-31 renal.
Assay [5] has as its system MDA-MB-435.
The test system of assay [6] is T-47D breast.
The test system of assay [7] is IGROV1 ovarian.
In assay [8] the test system is NCI-H226 lung.
For assay [9], the system named is OVCAR-5 ovarian.
The test system of assay [10] is MDA-N.
The subject of assay [11] is EKVX NSCLC.
The subject of assay [12] is HOP-92 NSCLC.
The test system of assay [13] is LOX IMVI melanoma.

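Five concentrations, 48 hours, 96-well plates. GI50 = concentration required for 50% inhibition of growth. At the TGI there is no net growth.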

With `Cc1ncc([N+](=O)[O-])n1CCNC(=O)Cn1c([N+](=O)[O-])cnc1C`, the TGI in [1], in assay [2], in assay [3], in assay [4], in assay [5] and in assay [6] was above 100 µM in each case. In addition, the TGI in assay [7], in [8], in [9] and in assay [10] was above 100 µM in each case.
As to `NC(=O)c1cccc([C@@H]2O[C@H](CO)[C@@H](O)[C@H]2O)c1`, the TGI in [1] was above 100 µM; in assay [2], 35.7 µM; in [3], 60 µM; in assay [4], 15.7 µM; in assay [11], above 100 µM; in assay [5] it was above 90.3 µM. For the same molecule, the TGI is above 69.6 µM in assay [12]; above 66.6 µM in [6]; 85.6 µM in assay [7]; above 85.4 µM in [13]; 75.7 µM in [8]; above 100 µM in assay [9]. Further, the TGI in assay [10] was above 100 µM.
With `Cc1ccc2c(=O)cc(-c3sc4ccccc4c3C)[nH]c2n1`, the GI50 was 33.4 µM in assay [1] and 4.84 µM in assay [5]. Besides, the TGI in assay [1] was above 100 µM; in assay [2], 71.4 µM; in [3], 36.3 µM; in assay [11], 88.2 µM; in assay [5] it was 17.8 µM; in [12], 30.6 µM. Besides, the TGI in assay [6] was 55.8 µM; in [7] it was 45.7 µM; in [13], 46.7 µM; in assay [8], 81.3 µM; in assay [9], above 100 µM; in [10] it was 45 µM.
Consider `CC1=NN=C(N)NC1=CC(Sc1ccc(Cl)cc1)c1c(O)ccc2ccccc12` (centres undefined), for which the TGI in assay [1] was 53.4 µM; in [2], 67.4 µM; in assay [3], 25.9 µM; in [4], above 67.6 µM; in assay [11], 69 µM; in assay [5] it was above 86.6 µM. For the same molecule, the TGI in [12] was above 78.5 µM; in assay [6] it was 58.9 µM; in assay [7], 37.3 µM; in assay [13], above 65.2 µM; in assay [8], 14 µM; in assay [9] it was above 61.9 µM. Further, in [10], the TGI is above 100 µM.
On to `FC1=C2CCCCCC2SC1(F)F` (centres undefined), for which the TGI in assay [1] is above 100 µM; in assay [2] it was above 100 µM; in [3] it was above 100 µM; in [4] it was above 100 µM; in assay [11], above 100 µM; in [5] it was 70.7 µM. The TGI in assay [12] is 70.2 µM; in assay [6], above 100 µM; in assay [7], above 100 µM; in assay [13], 31.4 µM; in assay [8], above 100 µM; in [9] it was above 100 µM. In assay [10], this molecule yielded a TGI above 100 µM.
`CCOC(=O)c1c(N2CCCC2)[nH]c(=O)c(C(c2cccs2)c2c(O)c(C(=O)OCC)c(N3CCCC3)[nH]c2=O)c1O`: the TGI in [1], in assay [2], in [3], in assay [4], in assay [11] and in [5] was above 100 µM in each case. Moreover, the TGI in [12], in assay [6], in assay [13], in assay [8], in assay [9] and in assay [10] was above 100 µM throughout.
As for `Cc1cccc2c(=O)c3cccc([C@@H](C)C(=O)O)c3oc12`, the TGI in assay [1], in assay [2], in assay [4], in [11], in [5] and in assay [12] was above 100 µM each time. In addition, the TGI in assay [6], in assay [7], in [13], in assay [8] and in [10] was above 100 µM each time.
For `c1ccc2cc3c(cc2c1)nc1ccccn13`, the TGI in assay [1], in [2], in assay [3], in assay [4], in [11] and in assay [5] was above 100 µM each time. Also, the TGI in assay [12], in assay [6], in [7], in [8], in assay [9] and in assay [10] was above 100 µM in each case.
Take `COC(=O)c1c(-c2ccccc2)c2sc3ccccc3n2c1N`: the TGI in assay [1], in assay [2], in assay [3], in assay [4], in [11] and in assay [5] was above 100 µM in each case. Besides, the TGI in assay [12] is 98 µM; in assay [6], 87.5 µM; in assay [7], above 100 µM; in assay [13], 43.2 µM; in assay [8], above 100 µM; in [9], above 100 µM. Moreover, the TGI in assay [10] was above 100 µM.
Turning to `O=c1ccn(C2OC(CN(O)CCC3C(CO)OC(n4ccc(=O)[nH]c4=O)C3O)C(O)C2O)c(=O)[nH]1` (centres undefined), the TGI in assay [1], in [2], in assay [3], in [4], in [11] and in assay [5] was above 100 µM throughout. Besides, the TGI in assay [12], in assay [6], in [7], in assay [8], in assay [9] and in assay [10] was above 100 µM each time.
Consider `COc1cc2c(cc1OC)C(=O)N(NC1=NCCN1)C2=O`, for which the TGI in [1], in assay [2], in [3], in assay [11], in [5] and in assay [6] was above 100 µM throughout. Further, the TGI in assay [7], in assay [13], in assay [8], in [9] and in assay [10] was above 100 µM throughout.

The record behind these values is PubChem BioAssay (NCI).
